row,Compound,melting point
1,COC(=O)Cn1c(C)cc(O)c([N+](=O)[O-])c1=O,187 °C
2,CC(C)(C)NCCOc1ccccc1CCCc1cccc2[nH]ccc12,114 °C
3,N=C(N)N1CCC(CC(=O)O)CC1,> 310 °C
4,O=C(O)c1cn(-c2ccncc2F)c2cc(F)c(F)cc2c1=O,271 to 273 °C
5,O=c1[nH]c2ccc3c(c2[nH]1)OC(CNCCCCc1ccccc1)CO3 (stereo not given),224 to 226 °C
6,Cc1ccccc1-c1c(C(=O)NCc2cc(C(F)(F)F)cc(C(F)(F)F)c2)n(C)c(=O)c2ccccc12,168 to 170 °C
7,CC(C)(C)OC(=O)CN(C(=O)CN1C(=O)c2ccccc2C1=O)c1ccc2c(c1)OCO2,166 °C
8,CCOC(=O)Cn1c2c([nH]c(=O)c1=O)CCC1=C2C=C(N)CC1,238 °C
9,COc1cccc(NN=C(Cl)C(C)=O)c1,117 to 119 °C
10,CSc1ccc([N+](=O)[O-])c2nonc12,118 to 120 °C
11,CCn1nc(-c2cnc3[nH]cc(C(=O)N[C@H](C)C(=O)N4CC(C#N)C4)c3n2)c2ccc(Cl)cc21,248 to 255 °C
12,Cc1nc(N)sc1S(=O)(=O)NCCO,151 °C
13,CCCC1=C(C#N)C(c2ccccc2C#N)c2c[nH]nc2N1 (stereo not given),218 °C
14,CC(C)(O)c1ccc(C(=O)Nc2cn3cc(-n4ccnc4)ccc3n2)cc1,281 to 282 °C
15,COc1ccc2cccc(C(F)CNC(C)=O)c2c1 (stereo not given),128 to 130 °C
16,Cc1nn(C)c2[nH]c(=O)c3ccccc3c12,> 310 °C
17,O=[N+]([O-])c1ccc(C=COC=Cc2ccc([N+](=O)[O-])cc2)cc1,59 to 61 °C
18,CN(C)C(=O)c1c(-c2ccccc2)oc2c(CCl)cccc2c1=O,202 to 203 °C
19,CC(=O)c1ccc(-c2ccc(C(C)=O)s2)s1,235 °C
20,C=C(c1ccc(C(=O)OC)cc1)c1ccc2c(c1)C(C)(C)CCC2(C)C,117 to 118 °C
21,COC(=O)Nc1c(Cl)ccc(C)c1F,109 to 112 °C
22,CC(=O)Nc1ccc(-c2ccc3nnn(Cc4ccc5ncccc5c4)c3n2)cc1,220 to 223 °C
23,Clc1ccc(C2=CCN(Cc3n[nH]c4c(Cl)cccc34)CC2)cc1,171 to 173 °C
24,NS(=O)(=O)c1ccc(NC(=O)CNc2ccccc2)c(Br)c1,179 to 181 °C
25,CCc1nc(-c2ccc(OCCCN3CCOCC3)cc2)no1,52 to 53 °C

row,Compound,melting point
1,CCOC(=O)NN(C(=O)OCC)C1(c2ccc3c(c2)OCO3)C(=O)N(Cc2ccc(Cl)cc2)c2ccccc21 (stereo not given),> 220 °C
2,CC(=O)Nc1c(C(=O)c2ccccc2)[nH]c2c(Cl)cccc12,185 to 188 °C
3,CCCCCCC(CCCn1c(CCC)nc2c(N)nc3ccccc3c21)=NO,113 to 115 °C
4,O=C/C=C/c1ccc(Cl)c(Cl)c1,92 to 94 °C
5,CCCCCCCCSCCCC(=O)O,33 to 34.5 °C
6,O=c1[nH]c2ncc(-c3ccc(-c4nc5ccccc5[nH]4)cc3)nc2n1CC1CCOCC1,> 300 °C
7,Cc1oc(-c2ccccc2)nc1CCc1ccc(/C=C/C=C/C=C2OC(=O)NC2=O)cc1,208 to 210 °C
8,Cc1c(C#N)cccc1C(=O)c1ccc(Cl)cc1,84 °C
9,CCC1=NC=C(c2ccc3c(c2)NC(=O)CO3)C(c2ccccc2)S1 (stereo not given),130 to 134 °C
10,CC(=O)OCc1nc(Cl)cc(N2CCCC2)n1,101 to 103 °C
11,CCc1cccc2c1CCNC2=O,123 to 126 °C
12,Cc1ccccc1C(=NC#N)NC(NC(=O)Cc1ccc(Cl)cc1)C(C)(C)C (stereo not given),109 to 110 °C
13,O=C(NC(c1ccccc1)C(O)c1ccccc1)OCc1ccccc1 (stereo not given),152 °C
14,CCCCCCC(C)N(C(C)=O)c1ccc(I)cc1 (stereo not given),60 to 62 °C
15,CC(F)(F)c1ccc2c(c1)C=C(C(=O)O)C(C(F)(F)F)O2 (stereo not given),156 to 158 °C
16,CC1Nc2cc(F)c(F)cc2-n2cccc21 (stereo not given),93 to 95 °C
17,COc1cc2c(cc1O)CCCC(C(=O)N1CCN(C(=O)c3cc(OC)c(OC)c(OC)c3)CC1)=C2,198 to 199 °C
18,CCOC(=O)C1=C(N)OC(C)=C(C(=O)OC)C1c1cccc([N+](=O)[O-])c1 (stereo not given),134 °C
19,CCCCSCC(=O)c1cc2sc(=O)[nH]c2cc1Cl,102 to 115 °C
20,COc1cc2c(cc1O)CCC1C3=CCC(O)C3(C)CCC21 (stereo not given),169 to 171 °C
21,CCCCCC(=O)OCc1nccc(O)n1,78 °C
22,COc1ccc(-c2nc(C)nn2-c2ccc(S(N)(=O)=O)cc2)cc1OC,176 to 178 °C
23,CCCn1nc(C(C)C)c(C(=O)OCc2cccc(C(=O)c3ccccc3)c2)c1Cc1ccc(-c2ccccc2S(N)(=O)=O)c(F)c1,46 to 50 °C
24,CCC1(CC)OC(c2ccc(S(C)(=O)=O)cc2)=C(Br)C1=O,130 to 131 °C
25,CC1(C)Oc2ccc(C(=O)CO)cc2[C@H](NC(=O)c2ccc(F)c(Cl)c2)[C@@H]1O,200 °C

# — a melting point compilation (Tetko et al.; mined from patent text by program, amines drawn as free bases though some values may be those of a salt)
